{"source": "patent US20210178012A1", "about": "“FOAM WOUND DRESSING COMPRISING AN ANTISEPTIC” (Coloplast A/S, priority 2018, published 2021)", "key": {"[1]": {"test": "Octenidine in foam, no surfactant: extraction from impregnated hydrophilic polyurethane foam discs", "assay_type": "physicochemical", "details": "plain foam, 24 h extraction", "experimental": "Discs of hydrophilic polyurethane foam were impregnated by applying a known volume of octenidine-containing solution to the surface of the foam and letting it soak into the foam matrix in a liquid:foam ratio which allowed the foam to be saturated with liquid. Afterwards, the impregnated foam was dried at RT overnight. The dried foam disc was immersed in the extraction media for 24 h and the extracted octenidine concentration was determined by UV at 285 nm"}, "[2]": {"test": "Previous zone of inhibition studies (not shown)", "assay_type": "cell-based", "details": "pure octenidine impregnated into foam without surfactants"}, "[3]": {"details": "0.1 w % OCT in impregnation solution"}, "[4]": {"details": "0.5 w % OCT in impregnation solution"}, "[5]": {"details": "1.0 w % OCT in impregnation solution"}}, "data": [{"smiles": "CCCCCCCCN=c1ccn(CCCCCCCCCCn2ccc(=NCCCCCCCC)cc2)cc1", "note": "[Octenidine, octenidine]", "values": [{"measurement": "Release % phosphate buffer (23 mM)", "setting": "[1]; [3]", "result": 7, "unit": "%"}, {"measurement": "Release % water", "setting": "[1]; [3]", "result": 5, "unit": "%"}, {"measurement": "Release % phosphate buffer (23 mM)", "setting": "[1]; [4]", "result": 13, "unit": "%"}, {"measurement": "Release % water", "setting": "[1]; [4]", "result": 1.5, "unit": "%"}, {"measurement": "Release % phosphate buffer (23 mM)", "setting": "[1]; [5]", "result": 20, "unit": "%"}, {"measurement": "Release % water", "setting": "[1]; [5]", "result": 1.5, "unit": "%"}, {"measurement": "zones in a zone of inhibition study", "setting": "[2]", "result": "small or no zones"}]}]}
